From patent publication US9452185B2, “Mesenchymal stem cells and supports for tissue regeneration, repair and reconstruction” (THE TEXAS A&M UNIVERSITY SYSTEM, priority 2009, dated 2016)
“Also recorded” adds a separate entry of the source.

Legend:
Type in all cases: cell-based, human
[1] = test system: hMSCs; experiment: Alkaline phosphatase (ALP) activity of hMSCs in osteogenic media
Protocol: For non-mineralizing osteogenic differentiation, hMSCs were plated in 12-well plates at 100 cells cm^−2. Upon reaching about 70% confluency, the media was changed to osteogenic base media (OBM) containing 50 μg mL^−1 ascorbic acid and 5 mM β-glycerol phosphate and either GW9662 or DMSO. Media was changed every 2 days for 8-10 days following measurement of ALP activity. For this purpose, the monolayer was washed with PBS and then with ALP reaction buffer (100 mM Tris-HCl, pH 9, containing 100 mM KCl and 1 mM MgCl2). One half mL of ALP buffer then 0.5 mL p-nitrophenol phosphate (PNPP) was rapidly added to the wells. ALP activity was measured as the rate of PNPP conversion to p-nitrophenolate by monitoring the absorbance at 405 nm every 30 seconds for 9 minutes using a plate reader. The rates were normalized against cell number and statistically analyzed using one-way analysis of variance (ANOVA) and Tukey post test for multiple comparisons or by Student's t-test, for single, unrelated comparisons.
Early osteogenic differentiation and alkaline phosphatase assays. MSCs were plated in 6-well plates at an initial plating density of 100 cells per cm^2 and cultured in standard complete media for 6 days until semi-confluence (approximately 5,000 cells per cm^2). Osteogenic base media consisting of complete media containing 5 mM β-GP and 50 μg mL^−1 ascorbate-2-phosphate and the appropriate inhibitor or vehicle was then used to induce early osteogenic differentiation. Assays were allowed to proceed for 8-10 days with changes of media every 2 days. ALP assays were performed as previously described (Gunn et al., 2006, Stem Cells 24:986-991).
(§1) In order to characterize the influence of 7AIPM on osteogenic differentiation, hMSC's from two donors were cultured as described elsewhere herein with the addition of varying concentrations of the compound or vehicle to the media. Samples of the media were collected daily for analysis. These samples were analyzed for the presence of OPG and Dkk-1 using ELISA. Alkaline phosphatase activity of the monolayers and cell numbers were measured using a spectrophotometer.

[2] = test system: hMSCs; experiment: Microarray of cultured hMSCs after 8 days in osteogenic media (in vitro); details: for transcript transducin-like enhancer of split-1 / transcripts Klf-6, caldesmon-1, gamma-aminobutyric acid B receptor-2, synaptotagmin like-2 / transcripts fibroblast growth factor-7, high mobility group AT-hook 2, Cdk5 and Abl enzyme substrate-1, amyloid beta precursor protein-binding family B2 / transcripts protocadherin-7, PR domain containing-1, gremlin-1, collectin subfamily member-12, stanniocalcin-2: 8 days, 200/800 nM BIO, 1.0/10 μM GW; for collagens and ECM proteins found in bone tissue (transcripts): vs vehicle control
Protocol: Array analysis. Transcriptome arrays were performed using Affimetrix apparatus and HG-U133 Plus 2.0 chips. Cytokine arrays on conditioned media were performed using a human cytokine array and analyzed using a digital imager. Effects of GSK3β and PPARγ inhibition on the transcriptome of hMSCs. […] After 8 days of culture, RNA microarrays were performed on the hMSCs.

[3] = test system: osteoprotegerin (OPG); experiment: OPG secretion by ELISA; details: osteogenic medium lacking dex, 8 days
Protocol: as §1, with “ELISAs. ELISA for CXCL6, Dkk-1, GROa, GRO13, and OPG were carried out by using nonbiotinylated polyclonal capture antibodies and biotinylated detection antibodies that were commercially acquired on coated 96-well plates The biotinylated […] antibodies were detected by using horseradish peroxidase-conjugated streptavidin and TMB substrate. ELISA for IL-lb were performed by using commercially acquired kits. In” for “In”

[4] = test system: Dkk-1; experiment: Dkk-1 secretion by ELISA; details: osteogenic medium lacking dex, 8 days
Protocol: as §1, with “ELISAs. ELISA for CXCL6, Dkk-1, GROa, GRO13, and OPG were carried out by using nonbiotinylated polyclonal capture antibodies and biotinylated detection antibodies that were commercially acquired on coated 96-well plates The biotinylated […] antibodies were detected by using horseradish peroxidase-conjugated streptavidin and TMB substrate. ELISA for IL-lb were performed by using commercially acquired kits. In” for “In”

[5] = test system: β-catenin, GSK3β, PPARγ; experiment: Intracellular distribution of β-catenin, GSK3β and PPARγ (immunoblot, fluorescence microscopy); details: for GSK3β in the cytoplasm / nuclear β-catenin: MSCs under osteogenic conditions
Protocol: Protein extraction, gel electrophoresis and western blotting. Nuclear extracts were performed by Triton extraction and differential centrifugation as previously described (Gregory et al., 2003, J Biol Chem 278:2806728078). Proteins were electrophoresed and blotted onto nitrocellulose using an electrophoresis system. Histochemistry and immunocytochemistry. For β-catenin localization studies, hMSCs were stained with a cy-3 conjugated anti-β-catenin antibody and nuclei were counterstained with pico-green dye. Specimens were processed as paraffin blocks and 8 longitudinal sections were prepared, deparaffinized and rehydrated, then stained with hematoxylin and eosin. For immunocytochemistry, sections were probed with an anti-human β-2-microglobulin antibody. An upright fluorescent microscope fitted with a high performance camera (and image analysis software was employed for imaging.

[6] = test system: hMSCs; experiment: hMSC yield, cell cycle analysis and cleaved caspase-3 immunoblot; details: for hMSC yield: BIO at concentrations greater than 400 nM, GW at tested doses; for cleaved caspase-3 (Asp175) immunoblot: whole cell extracts of treated hMSCs
Protocol: Cell cycle. Profiles were generated by fluorescence activated cell sorting and analyzed with software. Protein extraction, gel electrophoresis and western blotting. Nuclear extracts were performed by Triton extraction and differential centrifugation as previously described (Gregory et al., 2003, J Biol Chem 278:2806728078). Proteins were electrophoresed and blotted onto nitrocellulose using an electrophoresis system.

[7] = test system: hMSCs; experiment: Late stage osteogenesis, Alizarin Red S (ARS) staining; details: for dex-induced biomineralization with simultaneous treatment: 17 days with β-GP, ascorbate and dex; for dex-induced mineralization after pre-treatment: BIO 200 and 800 nM, GW 1.0 and 10.0 μM for 8 days, then 15 days with dex; for biomineralization in the absence of dex: extended incubation
Protocol: Late stage osteogenesis and ARS staining. Mature osteogenic assays were performed in 6 well format as previously described (Gregory et al., 2004, Anal Biochem 329:77-84).
Effect of GSK3β and PPARγ inhibition on late stage osteogenesis. […] Initially, experiments were conducted to examine whether pre-treatment of hMSCs with inhibitors BIO (200 and 800 nM) and GW (1.0 and 10.0 μM) in the presence of β-glycerophosphate (β-GP) and ascorbate for 8 days followed by 15 days in the same media supplemented with dex affected mineralization of the cultures. If BIO or GW function to accelerate the cells through the immature stages of osteogenesis and partially to maturity, hMSCs exposed to these conditions would be expected to respond more rapidly to the steroid-dependent mature osteoblast transition. After differentiation, calcium content was visualized by Alizarin Red S (ARS) staining and the dye was extracted and quantified. At the doses tested, and in a dose-dependent manner, BIO and GW enhanced dex-induced differentiation into biomineralizing osteoblasts (FIG. 21).
The next experiments were performed to examine whether withdrawal of the Wnt stimulus caused by BIO and GW was necessary for the hMSCs to progress to a dex-dependent biomineralizing phenotype. Human MSCs were pre-cultured with BIO and GW in the presence of f3-GP, ascorbate and dex for 17 days. […] Clotted human plasma is a biocompatible and osteoinductive vector for administration of hMSCs

[8] = osteogenic media without dexamethasone, 8 days
[9] = osteogenic medium lacking dex, 8 days

Structure (SMILES)	ALP activity [1, 8]	dose at which ALP activity dropped back to control levels [1, 9]	transcript transducin-like enhancer of split-1 [2]	transcripts Klf-6, caldesmon-1, gamma-aminobutyric acid B receptor-2, synaptotagmin like-2 [2]	transcripts fibroblast growth factor-7, high mobility group AT-hook 2, Cdk5 and Abl enzyme substrate-1, amyloid beta precursor protein-binding family B2 [2]	transcripts protocadherin-7, PR domain containing-1, gremlin-1, collectin subfamily member-12, stanniocalcin-2 [2]	collagens and ECM proteins found in bone tissue (transcripts) [2]	Dkk-1 secretion [4]	nuclear levels of PPARγ [5]	GSK3β in the cytoplasm [5]	nuclear β-catenin [5]	hMSC yield [6]	cleaved caspase-3 (Asp175) immunoblot [6]	dex-induced biomineralization with simultaneous treatment [7]	dex-induced mineralization after pre-treatment [7]	biomineralization in the absence of dex [7]	also measured
O=C1Nc2cc(Br)ccc2/C1=C1/Nc2ccccc2/C1=N\O [BIO, bromo-indirubin-3′-mono-oxime]	induced	exceeding 400 nM	down-regulated	significantly up-regulated	no change	significantly up-regulated	up-regulated	reduced	reduced	depletion	increased levels	substantial reduction	no evidence of caspase 3 processing	enhanced dex-induced biomineralization	enhanced	did not induce biomineralization	dose of maximal effect on ALP activity [1, 9]: 100 to 200 nM; secretion of OPG [3]: rose in a dose dependent manner; cell cycle effect ([6]; 800 nM BIO, 8 days): inhibit mitosis
O=C(Nc1ccccc1)c1cc([N+](=O)[O-])ccc1Cl [GW9662, 2-chloro-5-nitro-N-phenyl-benzamide]	induced	> 1.0 µM	down-regulated	significantly up-regulated	significantly up-regulated	no change	up-regulated	reduced	reduced	depletion	increased levels	without reduction in cellular yield	no evidence of caspase 3 processing	enhanced dex-induced biomineralization	enhanced	did not induce biomineralization	ALP activity ([1]; hMSCs in osteogenic media with GW9662 vs DMSO): dose-dependent increase; also recorded: substantially upregulated; also recorded: substantially up-regulated; also recorded: increased; inflammatory mediator genes (IL1, IL8, CXCL chemokines) ([2]; vs control): profoundly down-regulated; dose of maximal stimulation of OPG secretion [3]: 0.5 µM
